Read-outs that look alike come from different tables or passages of the source.
Assays:
[1] = Test 8: acute toxicity in vivo, C3H mice; conditions: mouse, read-out: LD 500
Procedure: (§1) Test 8: Acute toxicity in vivo
(§2) The products to be tested were injected by the IP route into groups of 10 mice at various dilutions. Each day, the number of dead animals is noted. If the doses are well chosen, a 100% lethal dose and a 50% lethal dose have been able to be defined for each product. This study is limited to two months. Two isogenic mouse strains were systematically used: C3H/He and ICFW.

C3H/He mice = assay: Test 8: acute toxicity in vivo, C3H mice; conditions: mouse, ip
Procedure: as §1, §2

L 1210 leukemia = assay: Test 1: antitumoral properties on L 1210 leukemia (Table I); format: in vivo, mouse
Procedure: The lower animal antitumoral properties of the compounds according to the invention have been determined by their curative action on inoculated test L-1210 leukemia. [ZUBROD C. G., Proc. Nat. Acad. Sci. 1972, 69, 1042-1047 and SCHEPARTZ SA. SCREENING, 1971, CANCER Chemother. Rep. Part 3 vol.2 p.3].
This leukemia is maintained in ascitic form by passage (i.p. route) on CBDl (C57 B16×DBA/2)F1 mice. The preparation to be tested are injected by the intraperitoneal route at least one day after the inoculation of the cells (one injection only). The results are expressed in increased life span per cent (ILS %) according to KESSEL et al. Cancer Res. 1971, 31, 1883-1887) or in percentage of the number of cells killed by the product (the survival of the animals is proportional to the number of cells injected).
The following tests were made in groups of 10 mice, unless stipulated to the contrary.
Test 1: Study of the antitumoral properties of the compounds of the invention on L 1210 leukemia
The lower animal antitumoral properties of the compounds according to the invention were determined by their curative action on test inoculated L 1210 leukemia.
This leukemia was maintained on CBD 1 (C 57 B 16×DBA/2) F1 mice. The compounds to be tested were injected by the IP route one or more days after the inoculation of the cells (single injection). The results obtained, shown in table I hereinafter, are expressed in percentage of increase of life span (ILS %) and in percentage of the number of cells killed by the compound to be tested, the survival of the animals being proportional to the number of cells injected.
The percentage of the like span ILS % (Cancer. Res. 1971, 31, 1883-1887) is the following ratio: [formula] S^t =survival of the treated animals S^c =survival of the control animals

[2] = Test 4: toxicity on adult F1 mice, IP; conditions: in vivo
Excerpt: Test 4: Investigation of the toxicity
The toxic dose has been sought, on adult ([…]×DBA/2) Fl mice and on new-born mice, of the compounds of the invention by injection by the IP route. The results obtained are given hereinafter:
1- On adult F1 mice (C 57 BL 6×DBA/2)F1 (IP route)

[3] = tested on: tumoral strain derived from the murine leukemia due to the C. FRIEND virus; assay: Test 7: antitumoral activity in vitro on Friend leukemia tumoral strain; format: cell-based; conditions: HUM = 1
Procedure: Test 7: Study of the antitumoral activity in vitro
This activity was measured on a tumoral strain derived from the murine leukemia due to the C. FRIEND virus.
The tumoral cells multiply in suspension in a "RPMI 1640" medium (Catalogue of GIBCO Bio-cult. Ltd. Washington Road, Sandyford Industrial Estate, PAISLEY PA 3 4EP, Renfrewshire, Scotland) supplemented with 20% of embryonary calf serum, penicillin and streptomycine. The duplication time of these cells is 11 hours. The growth fraction is equal to 1 or very close to 1 (all the cells are in the cycle). The cultures are sub-culturedat time t=0 at the concentration of 2.10^5 cells per ml in Falcon dishes containing 4 ml of medium. After twenty four hours, the product to be tested was added, i.e. at a moment when the cultures are in exponential phase of growth. Twenty four hours after the addition of the product, the cells are counted and the percentage of living cells determined by an exclusion test using "trypan" blue.

[4] = Test 8: acute toxicity in vivo, ICFW mice; conditions: mouse, read-out: LD 500
Procedure: as §1, §2

ICFW mice = assay: Test 8: acute toxicity in vivo, ICFW mice; conditions: mouse, ip
Procedure: as §1, §2

Friend leukemia virus = assay: Test 14: viro-induced Friend leukemia, compound 21 (Tables Xa, Xb); format: in vivo, mouse; parameters: MST: unit not given beside the values; conditions: for life span: Tables Xa and II
Procedure: Test 14: viro-induced leukemia: Friend leukemia
A- As in test 2 hereinabove, the Friend leukemia virus inoculum was obtained from leukemia spleen and diluted to contain 100 SD50 /0.2 ml (SD50 =spleen enlarging dose 50 percent). The product to be tested was compound 21 (obtained according to example 7). It was given by I.P. route as a single injection 1 day after virus inoculation. […]
B. The proceeding of test 2 was repeated by using the compound 21 i.e. 1-[(γ-diethylaminopropyl)amino]-5-methyl-dipyrido[4,3-b][3,4-f]indole obtained according to example 7.
This test was carried out with a single dose of compound 21 (20 mg/kg) and with various virus doses.

[5] = experiment no 1, 10^3 cells, 50 mg/kg, J+2
[6] = experiment no 1, 10^4 cells, 50 mg/kg, J+2
[7] = experiment no 1, 10^5 cells, 50 mg/kg, J+2
[8] = experiment no 1, 10^6 cells, 50 mg/kg, J+2
[9] = experiment no 2, 10^4 cells, 50 mg/kg, J+1
[10] = experiment no 2, 10^5 cells, 50 mg/kg, J+1
[11] = experiment no 2, 10^6 cells, 50 mg/kg, J+1
[12] = 10^3 cells, 0.01 mg/mouse (0.5 mg/kg), J+1
[13] = 10^3 cells, 0.1 mg/mouse (5 mg/kg), J+1
[14] = 10^4 cells, 0.1 mg/mouse (0.5 mg/kg) [sic], J+1
[15] = 10^4 cells, 0.1 mg/mouse (5 mg/kg), J+1
[16] = Table Xa, 5 mg/kg, 1 day after virus
[17] = Table Xb, 20 mg/kg J+1, virus 1/500 (1000 SD50)
[18] = Table Xb, 20 mg/kg J+1, virus 1/1000
[19] = Table Xb, 20 mg/kg J+1, virus 1/2000 (250 SD50)

For `Cc1c2ccncc2c(C)c2c1[nH]c1ccncc12` [Example 1, 5,11-dimethyl dipyrido [4,3-b][3,4-f] indole], the LD50 ([1]; ip) was 100 mg/kg, the “LD 100” value (C3H/He mice) was 200 mg/kg and the ILS % (L 1210 leukemia; [5]) was 3%. For the same molecule, the “Number of cells found” value (L 1210 leukemia; [5]) was 800, the “Number of cells killed” value (L 1210 leukemia; [5]) was 20% and the Surviving mice (L 1210 leukemia; [5]) was 1/10. For the same molecule, the ILS % (L 1210 leukemia; [6]) was 14,78%, the “Number of cells found” value (L 1210 leukemia; [6]) was 6,000 and the “Number of cells killed” value (L 1210 leukemia; [6]) was 40%. The ILS % (L 1210 leukemia; [7]) was 15,73%, the “Number of cells found” value (L 1210 leukemia; [7]) was 40,000 and the “Number of cells killed” value (L 1210 leukemia; [7]) was 60%. The Surviving mice (L 1210 leukemia; [7]) was 0, the ILS % (L 1210 leukemia; experiment no 1, 10^6 cells, 1 mg/mouse (50 mg/kg), IP, J+2) was 34,32% and the “Number of cells found” value (L 1210 leukemia; [8]) was 10^5. The “Number of cells killed” value (L 1210 leukemia; [8]) was 90%, the Surviving mice (L 1210 leukemia; [8]) was 0 and the ILS % (L 1210 leukemia; [9]) was 11,8%. For the same molecule, the “Number of cells found” value (L 1210 leukemia; [9]) was 5000, the “Number of cells killed” value (L 1210 leukemia; [9]) was 50% and the ILS % (L 1210 leukemia; [10]) was 38,1%. For the same molecule, the “Number of cells found” value (L 1210 leukemia; [10]) was 2000, the “Number of cells killed” value (L 1210 leukemia; [10]) was 98% and the ILS % (L 1210 leukemia; experiment no 2, 10^6 cells, 1 mg/mouse (50 mg/kg), J+1) was 47,3%. For the same molecule, the “Number of cells found” value (L 1210 leukemia; [11]) was 8000, the “Number of cells killed” value (L 1210 leukemia; [11]) was 99% and the “ILS % (difference with the controls)” value (L 1210 leukemia; experiment no 3, 0,1 and 0,05 mg/mouse, 10^4 and 10^3 cells) was “no significant difference”. For the same molecule, the mortality ([2]; mouse, ip, 20 mg/kg) was 16.7%, the mortality ([2]; mouse, ip, 40 mg/kg) was 12.5% and the mortality ([2]; mouse, ip, 80 mg/kg) was 83.3%. The “Activity (ratio of the LD50 of HUM to the LD50 of the product tested)” value [3] was 3, the LD50 ([4]; ip) was 150 mg/kg and the “LD 100” value (ICFW mice) was 200 mg/kg. For the same molecule, the life span (Friend leukemia virus) was “significant increase of the life span”.

With `CCN(CC)CCCNc1nccc2c(C)c3[nH]c4ccncc4c3cc12` [Example 7, 1-(γ-diethylaminopropyl)amino-5-methyl-dipyrido-[4,3-b][3,4-f] indole] the LD50 ([1]; C3H, IP) was 20 mg/kg, the “LD 100” value (C3H/He mice) was 35 mg/kg and the ILS % (L 1210 leukemia; [12]) was 17.4%. For the same molecule, the “Number of cells found” value (L 1210 leukemia; [12]) was 80, the “Number of cells killed” value (L 1210 leukemia; [12]) was 92% and the ILS % (L 1210 leukemia; [13]) was 23.2%. For the same molecule, the “Number of cells found” value (L 1210 leukemia; [13]) was 40, the “Number of cells killed” value (L 1210 leukemia; [13]) was 96% and the Surviving mice (L 1210 leukemia; [13]) was 5/10. For the same molecule, the ILS % (L 1210 leukemia; 10^4 cells, 0.1 mg/mouse (0.5 mg/kg) [sic], IP, J+1) was 33.3%, the “Number of cells found” value (L 1210 leukemia; [14]) was 60 and the “Number of cells killed” value (L 1210 leukemia; [14]) was 99.94%. The Surviving mice (L 1210 leukemia; [14]) was 1/10, the ILS % (L 1210 leukemia; 10^4 cells, 0.1 mg/mouse (5 mg/kg), IP, J+1) was 11.5% and the “Number of cells found” value (L 1210 leukemia; [15]) was 10^3. The “Number of cells killed” value (L 1210 leukemia; [15]) was 90%, the mortality ([2]; 0.3 mg/mouse (15 mg/kg), IP, read-out: dead mice (converted)) was 0% and the mortality ([2]; 0.5 mg/mouse (25 mg/kg), IP, read-out: dead mice (converted)) was 0%. The mortality ([2]; 0.6 mg/mouse (30 mg/kg), IP, read-out: dead mice (converted)) was 50%, the mortality ([2]; 1 mg/mouse (50 mg/kg), IP, read-out: dead mice (converted)) was 33.3% and the LD50 ([2]; mouse, adult F1 mice, IP) was 30 mg/kg. For the same molecule, the “Activity (ratio of the LD50 of HUM to the LD50 of the product tested)” value [3] was 20, the LD50 ([4]; ICFW, IP) was 15 mg/kg and the “LD 100” value (ICFW mice) was 25 mg/kg. For the same molecule, the ILS % (Friend leukemia virus; [16]) was 39%, the MST (Friend leukemia virus; [16]) was 44.5 and the Range of death (Friend leukemia virus; [16]) was 27 to 52 days. The ILS % (Friend leukemia virus; [17]) was 40%, the MST (Friend leukemia virus; [17]) was 40.7 and the Range of death (Friend leukemia virus; [17]) was 31-51. For the same molecule, the “Survivors 4 months after inoculation” value (Friend leukemia virus; [17]) was 0, the ILS % (Friend leukemia virus; [18]) was 82.7% and the MST (Friend leukemia virus; [18]) was 44.4. For the same molecule, the Range of death (Friend leukemia virus; [18]) was 30-54, the “Survivors 4 months after inoculation” value (Friend leukemia virus; [18]) was 0 and the ILS % (Friend leukemia virus; [19]) was 64%. The MST (Friend leukemia virus; [19]) was 55.4, the Range of death (Friend leukemia virus; [19]) was 50-82 and the “Survivors 4 months after inoculation” value (Friend leukemia virus; [19]) was 2. For the same molecule, the life span (Friend leukemia virus) was “significant increase of the life span”.
